The record followed here is ChEMBL document CHEMBL1201862, “PubChem BioAssay data set” (2004).

Test systems include CAKI-1; SK-OV-3; Malme-3M; UACC-257; A498; SK-MEL-2; U-251; UACC-62; CCRF-CEM; HCT-15; TK-10; NCI-H460; MOLT-4; SK-MEL-28; SNB-75; K562; HCT-116; NCI-H226.
Holding throughout (assay): DTP human tumour cell line panel, 48 h

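48-hour exposure; five concentrations; linearly interpolated endpoints. GI50: concentration for 50% inhibition of growth.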 Calls of active or inactive are those of the source. No stated cut-off is given here; in the data, active = GI50 up to about 1.1 µM and inactive = higher.

In the case of `COc1ccccc1NC(=O)CC(=O)n1nc(C)c(/N=N/c2ccccc2C(=O)O)c1C`, the GI50 was 47.1 µM (inactive) with CAKI-1; > 100 µM (inactive) in the assay with SK-OV-3; > 100 µM (inactive) in the assay with Malme-3M; > 100 µM (inactive) with UACC-257; 90.4 µM (inactive) in the assay on A498; > 100 µM (inactive) in the assay with SK-MEL-2. Also, the GI50 is 95.7 µM (inactive) in the assay on U-251; 59.7 µM (inactive) in the assay with UACC-62; > 100 µM (inactive) in the assay with CCRF-CEM; above 100 µM in the assay on HCT-15; > 100 µM (inactive) in the assay with TK-10; > 100 µM (inactive) in the assay on NCI-H460. Besides, the GI50 with MOLT-4 was > 100 µM (inactive); in the assay with SK-MEL-28, > 100 µM (inactive); with SNB-75 it was 32.1 µM (inactive); with K562 it was 97.1 µM (inactive); in the assay with HCT-116 it was > 100 µM (inactive).

For the molecule `CCCCCOCC(O)CO` (stereo unspecified), the GI50 in the assay on CAKI-1, with Malme-3M, with UACC-257, in the assay on A498, in the assay on SK-MEL-2 and in the assay with U-251 was > 100 µM (inactive) in each case. In addition, the GI50 is > 100 µM (inactive) in the assay with UACC-62; above 100 µM in the assay on HCT-15; > 100 µM (inactive) in the assay with TK-10; > 100 µM (inactive) in the assay on NCI-H460; > 100 µM (inactive) in the assay on SK-MEL-28; > 100 µM (inactive) in the assay on NCI-H226. Moreover, the GI50 in the assay with HCT-116 is > 100 µM (inactive).

`COC(=O)c1nc(NC#N)nc(O)c1C`: the GI50 is > 77.3 µM (inactive) in the assay on CAKI-1; > 100 µM (inactive) in the assay with SK-OV-3; > 100 µM (inactive) with Malme-3M; > 100 µM (inactive) in the assay on UACC-257; > 100 µM (inactive) with A498; > 100 µM (inactive) in the assay with SK-MEL-2. In addition, the GI50 in the assay with U-251 was > 85.7 µM (inactive); in the assay with UACC-62, > 61.1 µM (inactive); in the assay on CCRF-CEM, 78 µM (inactive); in the assay on HCT-15 it was above 87.3 µM; in the assay on TK-10 it was > 100 µM (inactive); in the assay with NCI-H460, > 100 µM (inactive). For the same molecule, the GI50 is > 100 µM (inactive) with MOLT-4; > 100 µM (inactive) with SK-MEL-28; > 53.3 µM (inactive) in the assay on SNB-75; 34.9 µM (inactive) in the assay on K562; > 61.1 µM (inactive) with HCT-116.

In the case of `C[C@@H](NC1CCCC[C@@H]1O)c1ccccc1` (stereo partly specified), the GI50 in the assay on CAKI-1, with SK-OV-3, in the assay with Malme-3M, in the assay on UACC-257, with SK-MEL-2 and in the assay with U-251 was > 100 µM (inactive) throughout. Moreover, the GI50 is > 100 µM (inactive) with UACC-62; > 100 µM (inactive) in the assay on CCRF-CEM; above 100 µM in the assay on HCT-15; > 100 µM (inactive) in the assay on TK-10; > 100 µM (inactive) with NCI-H460; > 100 µM (inactive) in the assay with MOLT-4. The GI50 in the assay on SK-MEL-28 is > 100 µM (inactive); in the assay on NCI-H226, > 100 µM (inactive); in the assay on SNB-75, 98.4 µM (inactive); in the assay with K562, > 100 µM (inactive); in the assay with HCT-116 it was > 100 µM (inactive).

As for `CC/C=C/c1cc2cc[nH]c2c2c1C(C)C[C@@H]2C` (stereo partly specified), the GI50 in the assay on CAKI-1 was 32.8 µM (inactive); with SK-OV-3, 63.8 µM (inactive); in the assay with Malme-3M it was > 100 µM (inactive); in the assay on UACC-257 it was 32.8 µM (inactive); in the assay with A498, 16.3 µM (inactive); in the assay on U-251 it was 23.4 µM (inactive). The GI50 with UACC-62 was 17.8 µM (inactive); in the assay with CCRF-CEM, 23.7 µM (inactive); in the assay on HCT-15, 22.5 µM; with TK-10, 53.6 µM (inactive); with NCI-H460, 25.1 µM (inactive); in the assay with MOLT-4 it was 18.8 µM (inactive). In addition, the GI50 in the assay on SK-MEL-28 was 22.8 µM (inactive); in the assay with NCI-H226 it was 15.1 µM (inactive); in the assay on SNB-75, 27.4 µM (inactive); with K562, 25.1 µM (inactive); in the assay with HCT-116, 15.7 µM (inactive).

As a reminder, the GI50 is the concentration giving 50% growth inhibition.
